What was measured:
[1] = tested on: purified Lipase 3 from Aspergillus niger; assay: p-Nitrophenol-acetate assay, determination of Km for purified Lipase 3; assay type: biochemical
Description: (§1) Lipase activity was determined colorimetrically using p-nitrophenyl acetate as a substrate. In a microtiter plate was added 10 μl of sample or blank then 250 μl of substrate was added (0.5 mg p-nitrophenyl acetate/ml of 50 mM phosphate buffer, pH 6.5). The microtiterplate was incubated for 5 min. at 30° C. and the absorbance at 405 nm was then read in a microplate reader.
A 60 ml sample of Grindlipase (Danisco A/S) a ferment of Aspergillus niger, pH 5.5 was first filtered through GF/B filter and then through 0.45 μm filter. The filtered sample was then desalted on a Superdex G25 SP column (430 ml, 22×5 cm) equilibrated in 20 mM triethanolamin, pH 7.3. Flow 5 ml/min. The total volume after desalting was 150 ml.
The desalted sample was applied to a Source Q30 anion exchange column (100 ml, 5×5 cm) equilibrated in 20 mM triethanolamine, pH 7.3. The column was washed with equilibration buffer until a stable baseline was obtained. Lipase activity was then eluted with a 420 ml linear gradient from 0 to 0.35 M NaCl in equilibration buffer, flow […]. Fractions of 10 ml were collected. […]
To the pool from anion exchange was added ammonium sulfate to 1 M and the sample was applied to a Source Phenyl HIC column (20 ml, 10 x 2 cm) equilibrated in 20 mM sodium-acetate (pH 5.5), 1M (NH4)2SO4. […] Fractions 33-41 were analyzed by SDS-PAGE and fraction 40 and 41 contained pure lipase. […]

[2] = tested on: commercial lipase #1646; assay: p-Nitrophenol-acetate assay, determination of Km for another commercial lipase (#1646); assay type: biochemical; conditions: pH 6.5, 50 mM phosphate buffer, 30° C., 405 nm; substrate 0.1 to 0.75 mg/ml; fit to non-competitive kinetics not accepted
Description: as §1
Kinetic data were fitted to v=VmaxS/(Km+S) where Vmax is maximum velocity, S is substrate concentration, and Km is the concentration giving half maximal rate (Michaelis constant), using the EZ-FIT curve-fitting microcomputer program [Perrella, (1988) EZ-FIT: A practical curve-fitting microcomputer program for the analysis of enzyme kinetic data on IBM-PC compatible computers. Anal. Biochem. 174: 437-447]. To determine Ki the data were fitted to the formulas for non-competitive, competitive, un-competitive and the model showing the best fit (non-competitive) were used to determine Ki. The program uses the Nelder-Mead simplex optimization of initial guesses followed by Marquardt nonlinear regression algorithm for least squares optimization. Run's statistic is used to determine if the fitted curve goes through the data points or whether a systematic departure from the curve exists. The fitted parameter values and standard error are tested for significance by the Student t test.

CC(=O)Oc1ccc([N+](=O)[O-])cc1 [p-nitrophenyl acetate]
Km for p-nitrophenyl acetate ([1]; pH 6.5, 50 mM phosphate buffer, 30° C., 405 nm, four levels of lipase inhibitor, fit to non-competitive model): 0.67 ± 0.04 mg/mL | Km for lipase with respect to p-nitrophenyl acetate (in words) ([1]; under the conditions in the assay): higher than the maximum solubility for p-nitrophenyl acetate | Km for p-nitrophenyl acetate [2]: 2.0 ± 0.6 mg/mL

From patent publication US7355004B2, “Protein lipase inhibitor for flour and dough” (Danisco A/S, priority 2002, dated 2008)
